Where a name gives a salt, the structure may show the parent alone. Read-outs that look alike come from different tables or passages of the source.
Biological target: human KAT II (hKAT II) enzyme (Homo sapiens, UniProt Q8N5Z0)
Experiment: KAT II Inhibition Spectra Assay
Type: biochemical
Conditions: single determination unless marked a (geometric mean of 2-4 determinations), decrease in OD370, L-kynurenine substrate, 37° C. for 15-20 h, read-out: KATII IC50
Protocol: KAT II Inhibition Spectra Assay
Formation of kynurenic acid (KYNA) is indirectly assessed by a decrease in light absorbance at 370 nm (OD370) as the L-kynurenine (KYN) substrate is converted by the human KAT II (hKAT II) enzyme into KYNA. An inhibitor would therefore inhibit the decrease in OD370.
The protocol was performed by placing the following reagents into a Costar 384 well black plate (30 μL total assay volume/well): • 10 μL of 3× concentrated compound; • 10 μL of 3× concentrated substrate mix (BGG (Sigma G-5009); 3 mM L-Kynurenine in 150 mM Tris Acetate (Sigma K3750); 3 mM α-ketoglutaric acid in 150 mM Tris Acetate (Sigma K2010); and 210 μM pyridoxal 5-phosphate (PLP) in 150 mM Tris Acetate (Sigma 9255)); and • 10 μL of 3× concentrated enzyme (15 nM enzyme in 150 mM Tris Acetate with 0.3% bovine serum).
Plates were sealed and incubated at 37° C. for 15-20 h before reading OD370 on a SpectraMax Plus plate reader. IC50s were generated by comparing the efficacy of compounds across a concentration range to inhibit a reduction in the OD370 value relative to assay wells with DMSO added in place of concentrated compound. Biological data for the Examples may be found in Table 2.

Sequence of human KAT II (hKAT II) enzyme (Q8N5Z0 30-425): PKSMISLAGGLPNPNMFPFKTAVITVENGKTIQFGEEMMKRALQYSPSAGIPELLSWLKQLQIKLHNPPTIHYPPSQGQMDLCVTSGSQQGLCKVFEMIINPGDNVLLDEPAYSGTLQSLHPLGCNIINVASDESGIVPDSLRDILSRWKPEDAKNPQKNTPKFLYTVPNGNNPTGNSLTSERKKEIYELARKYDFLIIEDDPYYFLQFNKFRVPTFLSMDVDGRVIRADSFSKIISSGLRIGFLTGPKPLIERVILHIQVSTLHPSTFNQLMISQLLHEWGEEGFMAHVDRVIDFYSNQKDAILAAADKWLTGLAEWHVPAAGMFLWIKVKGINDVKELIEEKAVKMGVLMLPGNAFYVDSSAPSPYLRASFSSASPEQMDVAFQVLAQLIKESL

Compound	IC50 [nM]	IC50 (hydrochloride salt) [nM]
NC1Cc2cc(Oc3ccccc3)cnc2-n2cnnc21 (single isomer, unassigned) [Example 8, 3—phenoxy—5,6—dihydro[1,2,4]triazolo[4,3—a][1,8]naphthyridin—6—amine ENT—1]	286	
NC1Cc2cc(Oc3ccccc3)cnc2-n2cnnc21 (single isomer, unassigned) [Example 9, 3—phenoxy—5,6—dihydro[1,2,4]triazolo[4,3—a][1,8]naphthyridin—6—amine ENT—2]	1310	
COc1cccc(Oc2ccc3c(c2)CC(N)c2n[nH]c(=O)n2-3)c1 (single isomer, unassigned; ent-1) [Example 1, 4-Amino-7-(3-methoxyphenoxy)-4,5-dihydro[1,2,4]triazolo[4,3-a]quinolin-1(2H)-one ENT-1, hydrochloride salt]		188
NC1Cc2cc(Oc3ccccc3)cnc2-n2c1n[nH]c2=O (single isomer, unassigned; ent-1) [Example 2, 6-Amino-3-phenoxy-6,8-dihydro[1,2,4]triazolo[4,3-a][1,8]naphthyridin-9(5H)-one, ENT-1]	59	
COc1cccc(Oc2ccc3c(c2)CC(N)c2nncn2-3)c1 (single isomer, unassigned; ent-1) [Example 4, 7-(3-Methoxyphenoxy)-4,5-dihydro[1,2,4]triazolo[4,3-a]quinolin-4-amine, ENT-1]	107	
COc1cccc(Oc2ccc3c(c2)CC(N)c2nncn2-3)c1 (single isomer, unassigned; ent-2) [Example 5, 7-(3-Methoxyphenoxy)-4,5-dihydro[1,2,4]triazolo[4,3-a]quinolin-4-amine, ENT-2]	1240	
COc1cccc(Oc2ccc3c(c2)CC(N)c2n[nH]c(=O)n2-3)c1 (single isomer, unassigned; ent-2) [Example C9, 4-amino-7-(3-methoxyphenoxy)-4,5-dihydro[1,2,4]triazolo[4,3-a]quinolin-1(2H)-one ENT-2, hydrochloride salt]	3720	
NC1Cc2cc(Oc3cccc(C(F)(F)F)c3)ccc2-n2c1n[nH]c2=O (stereo not drawn) [Example 3, 4-amino-7-[3-(trifluoromethyl)phenoxy]-4,5-dihydro[1,2,4]triazolo[4,3-a]quinolin-1(2H)-one, hydrochloride salt]	91.4	
COc1cccc(Oc2ccc3c(c2)C[C@H](N)c2noc(=O)n2-3)c1 [Example 6, (4S)-4-Amino-7-(3-methoxyphenoxy)-4,5-dihydro[1,2,4]oxadiazolo[4,3-a]quinolin-1-one, hydrochloride salt]	390	
NC1Cc2cc(Oc3ccccc3)ncc2-n2cnnc21 (stereo not drawn) [Example 7, 7-Phenoxy-4,5-dihydro[1,2,4]triazolo[4,3-a][1,7]naphthyridin-4-amine, hydrochloride salt]	413	
NC1Cc2cc(Oc3cccc(C(F)(F)F)c3)ccc2-n2cnnc21 (stereo not drawn) [Example 10, 7—[3—(trifluoromethyl)phenoxy]—4,5—dihydro[1,2,4]triazolo[4,3—a]quinolin—4—amine, hydrochloride salt]	185	
NC1Cc2cc(-c3ccccc3Cl)ccc2-n2c1n[nH]c2=O (stereo not drawn) [Example 11, 4—amino—7—(2-chlorophenyl)—4,5—dihydro[1,2,4]triazolo[4,3—a]quinolin—1(2H)—one, trifluoroacetate salt]	506	
NC1Cc2cc(-c3cccc4cnccc34)ccc2-n2c1n[nH]c2=O (stereo not drawn) [Example 12, 4—amino—7—(isoquinolin—5—yl)—4,5—dihydro[1,2,4]triazolo[4,3—a]quinolin—1(2H)—one, trifluoroacetate salt]	334	
COc1cncc(-c2ccc3c(c2)CC(N)c2n[nH]c(=O)n2-3)c1 (stereo not drawn) [Example 13, 4—amino—7—(5—methoxypyriclin—3—yl)—4,5—dihydro[1,2,4]triazolo[4,3—a]quinolin—1(2H)—one, trifluoroacetate salt]	673	
NC1Cc2cc(-c3cccc(Cl)c3)ccc2-n2c1n[nH]c2=O (stereo not drawn) [Example 14, 4—amino—7—(3—chlorophenyl)—4,5—dihydro[1,2,4]triazolo[4,3—a]quinolin—1(2H)—one, trifluoroacetate salt]	156	
Cn1ncc2c(-c3ccc4c(c3)CC(N)c3n[nH]c(=O)n3-4)cccc21 (stereo not drawn) [Example 15, 4—amino—7(1—methyl—1H—indazol—4—yl)—4,5—dihydro[1,2,4]triazolo[4,3—a]quinolin—1(2H)—one, trifluoroacetate salt]	262	
NC1Cc2cc(-c3cccc4ncccc34)ccc2-n2c1n[nH]c2=O (stereo not drawn) [Example 16, 4—amino—7—(quinolin—5—yl)—4,5—dihydro[1,2,4]triazolo[4,3—a]quinolin—1(2H)—one, trifluoroacetate salt]	664	

Compound	IC50 [nM]	IC50 (hydrochloride salt) [nM]
CCOc1cc(-c2ccc3c(c2)CC(N)c2n[nH]c(=O)n2-3)ccn1 (stereo not drawn) [Example 17, 4—amino—7—(2—ethoxypyridin—4—yl)—4,5—dihydro[1,2,4]triazolo[4,3—a]quinolin—1(2H)—one, trifluoroacetate salt]	1830	
Cn1cc(-c2ccc3c(c2)CC(N)c2n[nH]c(=O)n2-3)cn1 (stereo not drawn) [Example 18, 4—amino—7—(1—methyl—1H—pyrazol—4—yl)—4,5—dihydro[1,2,4]triazolo[4,3—a]quinolin—1(2H)—one, trifluoroacetate salt]	1360	
COc1ccccc1-c1ccc2c(c1)CC(N)c1n[nH]c(=O)n1-2 (stereo not drawn) [Example 19, 4—amino—7—(2—methoxyphenyl)—4,5—dihydro[1,2,4]triazolo[4,3—a]quinolin—1(2H)—one, trifluoroacetate salt]	751	
NC1Cc2cc(-c3cccnc3)ccc2-n2c1n[nH]c2=O (stereo not drawn) [Example 20, 4—amino—7—(pyridin—3—yl)—4,5—dihydro[1,2,4]triazolo[4,3—a]quinolin—1(2H)—one, trifluoroacetate salt]	546	
NC1Cc2cc(-c3cc(C(F)(F)F)ccc3Cl)ccc2-n2c1n[nH]c2=O (stereo not drawn) [Example 21, 4—amino—7—[2—chloro—5—(trifluoromethyl)phenyl]—4,5—dihydro[1,2,4]triazolo[4,3—a]quinolin—1(2H)—one, trifluoroacetate salt]	1250	
COc1ccc(-c2ccc3c(c2)CC(N)c2n[nH]c(=O)n2-3)cn1 (stereo not drawn) [Example 22, 4—amino—7—(6—methoxypyridin—3—yl)—4,5—dihydro[1,2,4]triazolo[4,3—a]quinolin—1(2M—one, trifluoroacetate salt]	1900	
NC1Cc2cc(-c3cccc(OC(F)(F)F)c3)ccc2-n2c1n[nH]c2=O (stereo not drawn) [Example 23, 4—amino—7—[3—(trifluoromethoxy)pheny1]—4,5—dihydro[1,2,4]triazolo[4,3—a]quinolin—1(2H)—one, trifluoroacetate salt]	684	
NC1Cc2cc(-c3ccc(F)cc3)ccc2-n2c1n[nH]c2=O (stereo not drawn) [Example 24, 4—amino—7—(4—fluorophenyl)—4,5—dihydro[1,2,4]triazolo[4,3—a]quinolin—1(2H)—one. trifluoroacetate salt]	1080	
CC(=O)c1cccc(-c2ccc3c(c2)CC(N)c2n[nH]c(=O)n2-3)c1 (stereo not drawn) [Example 25, 7—(3—acetylphenyl)—4—amino—4,5—dihydro[1,2,4]triazolo[4,3—a]quinolin—1(2H)—one, trifluoroacetate salt]	91.9	
NC1Cc2cc(-c3cccc(F)c3F)ccc2-n2c1n[nH]c2=O (stereo not drawn) [Example 26, 4—amino—7—(2,3-difluorophenyl)—4,5—dihydro[1,2,4]triazolo[4,3—a]quinolin—1(2H)—one, trifluoroacetate salt]	364	
NC1Cc2cc(-c3cccc(C(F)(F)F)c3)ccc2-n2c1n[nH]c2=O (stereo not drawn) [Example 27, 4—amino—7—[3—(trifluoromethyl)phenyl]—4,5—dihydro[1,2,4]triazolo[4,3-a]quinolin—1(2H)—one, trifluoroacetate salt]	215	
COc1cccc(-c2ccc3c(c2)CC(N)c2n[nH]c(=O)n2-3)c1 (stereo not drawn) [Example 28, 4—amino—7—(3—methoxyphenyl)—4,5—dihydro[1,2,4]triazolo[4,3—a]quinolin—1(2H)—one, trifluoroacetate salt]	357	
NC1Cc2cc(-c3ccccc3F)ccc2-n2c1n[nH]c2=O (stereo not drawn) [Example 29, 4—amino—7—(2—fluorophenyl)—4,5—dihydro[1,2,4]triazolo[4,3—a]quinolin—1(2H)—one, trifluoroacetate salt]	361	
CC(C)Oc1cccc(-c2ccc3c(c2)CC(N)c2n[nH]c(=O)n2-3)c1 (stereo not drawn) [Example 30, 4—amino—7—[3—(propan—2—yloxy)phenyl]—4,5—dihydro[1,2,4]triazolo[4,3—a]quinolin—1(2H)—one, trifluoroacetate salt]	534	
Cc1ccccc1-c1ccc2c(c1)CC(N)c1n[nH]c(=O)n1-2 (stereo not drawn) [Example 31, 4—amino—7—(2—methylphenyl)—4,5—dihydro[1,2,4]triazolo[4,3—a]quinolin—1(2H)—one, trifluoroacetate salt]	660	
COc1ccc(F)cc1-c1ccc2c(c1)CC(N)c1n[nH]c(=O)n1-2 (stereo not drawn) [Example 32, 4—amino—7—(5—fluoro—2—methoxyphenyl)—4,5—dihydro[1,2,4]triazolo[4,3—a]quinolin—1(2H)—one, trifluoroacetate salt]	302	
